ChEMBL document CHEMBL3351689, “The discovery of indole full agonists of the neurotensin receptor 1 (NTSR1)” (Bioorg Med Chem Lett, 2014)

Each compound was assayed against T1, Neurotensin receptor type 1 (Homo sapiens, UniProt P30989) (assay: Agonist activity at NTSR1 (unknown origin) expressed in CHO cells assessed as potentiation of NT(8-13) peptide-induced change in intracellular Ca2+ level preincubated for 45 mins by FLIPR assay).
Type: functional, cell-based

T1 sequence (P30989 whole entry): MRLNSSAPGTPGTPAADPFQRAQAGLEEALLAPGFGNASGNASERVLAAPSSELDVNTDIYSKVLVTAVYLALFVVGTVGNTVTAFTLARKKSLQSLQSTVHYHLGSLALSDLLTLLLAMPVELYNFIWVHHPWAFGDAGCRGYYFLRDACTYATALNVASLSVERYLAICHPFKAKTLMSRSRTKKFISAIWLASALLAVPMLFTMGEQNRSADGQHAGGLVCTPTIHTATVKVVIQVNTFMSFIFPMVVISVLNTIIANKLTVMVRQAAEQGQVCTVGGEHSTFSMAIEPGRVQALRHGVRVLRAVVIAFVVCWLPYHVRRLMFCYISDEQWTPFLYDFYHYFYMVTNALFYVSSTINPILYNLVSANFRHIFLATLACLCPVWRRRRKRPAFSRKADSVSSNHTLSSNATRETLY

| SMILES | EC50 [µM] |
| --- | --- |
| COC(=O)[C@H](CC(C)C)NC(=O)Cn1ccc2cc(-c3cccc4ccccc34)ccc21 | > 100 |
| CC(C)C[C@H](NC(=O)Cn1ccc2cc(N)ccc21)C(=O)O | 25.8 |
| CC(C)C[C@H](NC(=O)Cn1ccc2cc(NS(=O)(=O)c3cccc4cccnc34)ccc21)C(=O)O | 8.99 |
| CC(C)C[C@@H](NC(=O)Cn1ccc2cc(-c3cnc4ccccc4c3)ccc21)C(=O)O | > 100 |
| CC(C)[C@H](NC(=O)Cn1ccc2cc(-c3cccc4ccccc34)ccc21)C(=O)O | > 100 |
| CC(C)C[C@H](NC(=O)Cn1ccc2cc(NS(=O)(=O)c3cccc4ccccc34)ccc21)C(=O)O | 9.39 |
| O=C(O)CNC(=O)Cn1ccc2cc(-c3cnc4ccccc4c3)ccc21 | > 100 |
| COC(=O)[C@@H](CC(C)C)NC(=O)Cn1ccc2cc(-c3cnc4ccccc4c3)ccc21 | > 100 |
| CC(C)C[C@@H](CO)NC(=O)Cn1ccc2cc(-c3cnc4ccccc4c3)ccc21 | > 100 |
| CC(C)C[C@H](NC(=O)Cn1ccc2cc(-c3ccccc3)ccc21)C(=O)O | 9.44 |
| CC(C)[C@H](NC(=O)Cn1ccc2cc(-c3cnc4ccccc4c3)ccc21)C(=O)O | > 100 |
| COc1cccc(CC(=O)Nc2ccc3c(ccn3CC(=O)N[C@@H](CC(C)C)C(=O)O)c2)c1 | 24.2 |
| CC(C)C[C@H](NC(=O)Cn1ccc2cc(Br)ccc21)C(=O)O | 9.99 |
| COC(=O)[C@@H](CC(C)C)NC(=O)Cn1ccc2cc(-c3cccc4ccccc34)ccc21 | > 100 |
| CC(C)C[C@H](NC(=O)Cn1ccc2cc(-c3cccnc3)ccc21)C(=O)O | 15.4 |
| COC(=O)[C@H](CC(C)C)NC(=O)Cn1ccc2cc(-c3cnc4ccccc4c3)ccc21 | > 100 |
| C[C@H](NC(=O)Cn1ccc2cc(-c3cnc4ccccc4c3)ccc21)C(=O)O | > 100 |
| CC(C)C[C@@H](NC(=O)Cn1ccc2cc(-c3cccc4ccccc34)ccc21)C(=O)O | > 100 |
| O=C(O)CNC(=O)Cn1ccc2cc(-c3cccc4ccccc34)ccc21 | > 100 |
| CC(C)C[C@H](NC(=O)Cn1ccc2cc(NC(=O)c3ccnc4ccccc34)ccc21)C(=O)O | 55.1 |

The next lines start with the values.

| EC50 [µM] | SMILES |
| --- | --- |
| 7.46 | CC(C)C[C@H](NC(=O)Cn1ccc2ccc(-c3cncc4ccccc34)cc21)C(=O)O |
| 2.12 | CC(C)C[C@H](NC(=O)Cn1ccc2cc(N(Cc3ccnc4ccccc34)Cc3ccnc4ccccc34)ccc21)C(=O)O |
| 6.65 | CC(C)C[C@H](NC(=O)Cn1ccc2ccccc21)C(=O)O |
| 3.28 | CC(C)C[C@H](NC(=O)Cn1ccc2ccc(-c3cnc4ccccc4c3)cc21)C(=O)O |
| 4.96 | CC(C)C[C@H](NC(=O)Cn1ccc2cc(-c3cccc4cnccc34)ccc21)C(=O)O |
| 3.24 | CC(C)C[C@H](NC(=O)Cn1ccc2cc(-c3cncc4ccccc34)ccc21)C(=O)O |
| 2.85 | CC(C)C[C@H](NC(=O)Cn1ccc2ccc(-c3cccc4ccccc34)cc21)C(=O)O |
| 7.72 | CC(C)C[C@H](NC(=O)Cn1ccc2cc(Nc3ccc4cnccc4c3)ccc21)C(=O)O |
| 2.05 | CC(C)C[C@H](NC(=O)Cn1ccc2cc(-c3cnc4ccccc4c3)ccc21)C(=O)O |
| 5.17 | CC(C)C[C@H](NC(=O)Cn1ccc2cc(-c3cnc4ccccc4c3)ccc21)c1nn[nH]n1 |
| 4.33 | O=C(Cn1ccc2cc(-c3cnc4ccccc4c3)ccc21)N[C@@H](Cc1ccccc1)C(=O)O |
| 3.26 | CC(C)C[C@H](NC(=O)Cn1ccc2cc(-c3cccc4ccccc34)ccc21)C(=O)O |

These compounds were tested against T1, Neurotensin receptor type 1 (assay: Antagonist activity at NTSR1 (unknown origin) expressed in CHO cells assessed as inhibition of NT(8-13) peptide-induced change in intracellular Ca2+ level preincubated for 45 mins by FLIPR assay).
Type: functional, cell-based

| IC50 [µM] | SMILES |
| --- | --- |
| 0.082 | COc1cccc(OC)c1-c1cc(C(=O)NC2(C(=O)O)C3CC4CC(C3)CC2C4)nn1-c1ccnc2cc(Cl)ccc12 (centres undefined) [REMINERTANT] |
| 0.004 | COc1cccc(OC)c1-c1cc(C(=O)NC2(C(=O)O)C3CC4CC(C3)CC2C4)nn1-c1ccc(C(=O)N(C)CCCN(C)C)cc1C(C)C (centres undefined) |
